# Several values for one entry are separate records, joined by “and”; a condition that tells them apart may be missing. Identical values can stand only once. Like-named read-outs stand apart in the source and are kept apart here.
# Legend:
# [1] = system: CAT gene expression in RKO cells; experiment: CAT mRNA, real-time RT-qPCR, RKO; assay type: cell-based; details: 10 µg/mL, 24 h
# Experimental: (§1) In addition, two colorectal cancer cell lines, RKO and SW1116, were distinguished based on a different response to the EB5 derivative. To perform subsequent analyses, the selected CRC lines were treated with EB5 derivative at a concentration of 10 µg/mL for 24 h. Untreated cells were used as a negative control. Three biological replicates were performed.
# (§2) Total RNA from treated cells was extracted using TRIzol reagent (Sigma-Aldrich, St Louis, MO, USA) according to the manufacturer’s instructions. The obtained RNA was assessed qualitatively and quantitatively by agarose gel electrophoresis and by spectrophotometric measurement using MaestroNano MN-913 (MaestroGen Inc., Las Vegas, NV, USA), respectively. The obtained extracts provided the starting material for the assessment of genes changes at the mRNA level.
# (§3) Changes in the expression of SOD1, SOD2, CAT and GPX3 genes involved in antioxidant systems were assessed by real-time RT-qPCR using a LightCycler® 480 System apparatus (Roche, Basel, Switzerland). A commercially purchased GoTaq® 1-Step RT-qPCR System (Promega, Madison, WI, USA) was used, while the primers and reaction conditions were the same as in the previous study performed by Kruszniewska-Rajs et al.. GAPDH was used as the reference gene. The mRNA expression level studied genes were then determined by the 2^−ΔCt relative quantification method. All samples were tested in triplicate. The specificity of the reaction was evaluated based on the melting temperature curve, as well as using electrophoresis of the amplification products in a 2% agarose gel.
# [2] = system: RKO cells; experiment: MTT cytotoxicity assay, RKO
# Experimental: (§4) Six colorectal cancer cell lines, RKO, HT29, DLD-1, HCT116, Caco2 and SW1116 (CRL-2577, HTB-38, CCL-221, CCL-247, HTB-37, CCL-233; ATCC, Manassas, VA, USA, respectively, for CRC lines), and one normal cell line, CCD-841CoN (CRL-1790, ATCC, USA), were routinely cultured at 37 °C in a 5% CO2 incubator (Direct Heat CO2; Thermo Scientific, Waltham, MA, USA) in cell line-appropriate culture medium according to the manufacturer’s recommendations. Eagle’s minimum essential medium (EMEM) was used to culture RKO, Caco2 and CCD-841CoN lines, while McCoy’s 5A medium was used for HT29 and HCT116 lines. DLD-1 cells were grown in RPMI-1640 medium, whereas SW1116 cells were maintained in Leibovitz’s L-15 medium. All culture media were supplemented with 10% fetal bovine serum (EuroClone, Milan, Italy), and gentamycin at the concentration […] (BioWhittaker, Lonza, Basel, Switzerland) was also applied to prevent culture contamination.
# (§5) For this purpose, cells were exposed to the test compound for 24 h at concentrations of 0.1, 1, 10, 20, 50 and 100 μg/mL. Control cells were not treated with the compounds. MTT (0.25 mg/mL) was then added to the cultures and incubated for 3 h at 37 °C. After a time, the cells were washed with phosphate buffered saline (PBS), and next, formazan dye was dissolved in 100 μL of dimethyl sulfoxide (Sigma-Aldrich, St Louis, MO, USA). Absorbance was measured at 540 nm using a Wallac 1420 VICTOR microplate reader (PerkinElmer, Waltham, MA, USA).
# [3] = system: HT29 cells; experiment: MTT cytotoxicity assay, HT29; assay type: cell-based; details: for IC50: read-out: IC50 value
# From the text: (§6) Control cells were not treated with the compounds.
# [4] = system: SW1116 cells; experiment: MTT cytotoxicity assay, SW1116; details: for IC50: read-out: IC50 value
# Experimental: as §4, §5
# [5] = system: catalase (CAT) activity in RKO cells; experiment: CAT activity in RKO cells; assay type: cell-based; details: 10 µg/mL, 24 h
# Experimental: as §1
# (§7) To examine the antioxidant capacity of the cells as well as lipid peroxidation and to evaluate the activity of antioxidant enzymes, the cells were suspended in lysis buffer (containing 4 mg of […]™ Protease Inhibitor Cocktail and 10 µL of Phosphatase Inhibitor Cocktail 3 in 1 mL of PBS; Sigma-Aldrich, St Louis, MO, USA). Subsequently, the cells were placed in liquid nitrogen for 30 min, followed by storage at −80 °C until further analysis.
# Superoxide dismutase (SOD), glutathione peroxidase (GPx) and catalase (CAT) activities were assessed using a commercially purchased Cayman Chemicals Superoxide Dismutase Assay Kit, a Cayman Chemicals Glutathione Peroxidase Assay Kit and a Catalase Assay Kit (Cayman Chemicals, Ann Arbor, MI, USA), respectively, according to the manufacturer’s recommendations and based on a previous study. […] The level of change in absorbance was measured spectrophotometrically at the appropriate wavelength for the assay, i.e., for SOD in the range 440–460 nm, for GPx at 340 nm and for CAT at 540 nm.
# [6] = system: CCD-841CoN cells; experiment: in vitro; assay type: cell-based; details: CCD-841CoN normal cells, MTT, 24 h
# From the text: as §6
# [7] = system: DLD-1 cells; experiment: MTT cytotoxicity assay, DLD-1; assay type: cell-based; details: for IC50: read-out: IC50 value
# From the text: as §6
# [8] = system: RKO cells; experiment: Total antioxidant capacity (ABTS+), RKO; assay type: cell-based; details: 10 µg/mL, 24 h
# Experimental: as §1, §7
# The ABTS+ radical cation was used to assess the total antioxidant capacity (TAC) of the tested cells. The principle of the method is based on the reduction of the formed blue-green chromophore ABTS+ as a result of the reaction of ABTS (Sigma-Aldrich, St Louis, MO, USA) with potassium persulphate (Sigma-Aldrich, St Louis, MO, USA). The degree of decolorization of the ABTS+ radical cation depends on the antioxidant activity of the cells and is determined as a function of concentration and time in relation to Trolox reactivity (TEAC-Trolox equivalent antioxidant capacity).
# [9] = system: catalase (CAT) activity in SW1116 cells; experiment: CAT activity in SW1116 cells; assay type: cell-based; details: SW1116, 10 µg/mL, 24 h
# Experimental: as §1, §7
# Superoxide dismutase (SOD), glutathione peroxidase (GPx) and catalase (CAT) activities were assessed using a commercially purchased Cayman Chemicals Superoxide Dismutase Assay Kit, a Cayman Chemicals Glutathione Peroxidase Assay Kit and a Catalase Assay Kit (Cayman Chemicals, Ann Arbor, MI, USA), respectively, according to the manufacturer’s recommendations and based on a previous study. The cell supernatant from previously prepared cell lysates of the tested lines provided material for further analyses. The level of change in absorbance was measured spectrophotometrically at the appropriate wavelength for the assay, i.e., for SOD in the range 440–460 nm, for GPx at 340 nm and for CAT at 540 nm.
# [10] = system: HCT116 cells; experiment: MTT cytotoxicity assay, HCT116; assay type: cell-based; details: for IC50: read-out: IC50 value
# From the text: as §6
# [11] = system: SW1116 cells; experiment: Lipid peroxidation, MDA assay, SW1116; assay type: cell-based; details: SW1116, 10 µg/mL, 24 h
# Experimental: (§8) In addition, two colorectal cancer cell lines, RKO and SW1116, were distinguished based on a different response to the EB5 derivative. […] Untreated cells were used as a negative control. Three biological replicates were performed. To examine the antioxidant capacity of the cells as well as lipid peroxidation and to evaluate the activity of antioxidant enzymes, the cells were suspended in lysis buffer (containing 4 mg of […]™ Protease Inhibitor Cocktail and 10 µL of Phosphatase Inhibitor Cocktail 3 in 1 mL of PBS; Sigma-Aldrich, St Louis, MO, USA). Subsequently, the cells were placed in liquid nitrogen for 30 min, followed by storage at −80 °C until further analysis. To assess the level of lipid peroxidation, the Malondialdehyde Assay Kit (Aoxre BioSciences, Burlingame, CA, USA) was used, according to the manufacturer’s recommendations.
# [12] = system: RKO cells; experiment: Lipid peroxidation, MDA assay, RKO; assay type: cell-based; details: 10 µg/mL, 24 h
# Experimental: as §8
# [13] = system: CAT gene expression in SW1116 cells; experiment: CAT mRNA, real-time RT-qPCR, SW1116; assay type: cell-based; details: SW1116, 10 µg/mL, 24 h
# Experimental: as §1, §2, §3
# [14] = system: SOD1 gene expression in RKO cells; experiment: SOD1 mRNA, real-time RT-qPCR, RKO; assay type: cell-based; details: 10 µg/mL, 24 h
# Experimental: as §1, §2, §3
# [15] = system: SOD2 gene expression in RKO cells; experiment: SOD2 mRNA, real-time RT-qPCR, RKO; assay type: cell-based; details: 10 µg/mL, 24 h
# Experimental: as §1, §2, §3
# [16] = system: colorectal cancer cell lines RKO, HT29, DLD-1, HCT116, Caco2 and SW1116; experiment: MTT cytotoxicity assay, statements over all tested cell lines
# Experimental: as §4, §5
# [17] = system: Caco2 cells; experiment: MTT cytotoxicity assay, Caco2; assay type: cell-based; details: Homo sapiens, Caco-2, 24 h, read-out: IC50 value
smiles,measurement,setting,value
"N.N.[Cl][Pt][Cl] [Cisplatin, cisplatin]",CAT gene expression vs. 5FU,[1],significant increase in expression
same,IC50 value,"[2]; MTT, 24 h",6.35 mg/L
same,IC50,"[2]; read-out: IC50 value, MTT, 24 h",21.2 µM
same,IC50 value,"[3]; HT29, MTT, 24 h",>100 mg/L
same,IC50,"[3]; HT29, MTT, 24 h",> 333 µM
same,IC50 value,"[4]; SW1116, MTT, 24 h",>100 mg/L
same,IC50,"[4]; SW1116, MTT, 24 h",> 333 µM
same,CAT activity compared to the betulin-treated cells,[5],slight decrease
same,IC50 value,[6],27.59 mg/L
same,IC50,[6]; read-out: IC50 value,91.9 µM
same,IC50 value,"[7]; DLD-1, MTT, 24 h",27.72 mg/L
same,IC50,"[7]; DLD-1, MTT, 24 h",92.4 µM
same,reduction in TAC compared to the control cells,[8],about 23.6%
same,catalase activity compared to cells treated with EB5,[9],higher catalase activity
same,catalase activity compared to cells treated with betulin,[9],higher catalase activity
same,catalase activity compared to the control,[9],higher catalase activity
same,IC50 value,"[10]; HCT 116, MTT, 24 h",3.02 mg/L
same,IC50,"[10]; HCT 116, MTT, 24 h",10.1 µM
same,MDA level compared to 5FU-treated cells,[11],higher level of MDA
same,MDA level compared to betulin-treated cells,[11],higher level of MDA
same,MDA level compared to the control,[11],higher level of MDA
same,MDA level compared to the control group,[12],did not cause changes
same,CAT gene expression vs. 5FU,[13],difference in the expression
same,SOD1 gene expression vs. 5FU-treated cells,[14],statistically significant increase in expression
same,SOD1 gene expression vs. non-treated cells,[14],statistically significant increase in expression
same,SOD2 gene expression vs. 5FU-treated cells,[15],higher expression
same,SOD2 gene expression vs. untreated cells,[15],statistically significant increase in SOD2 gene expression
"C#CC(=O)OC[C@]12CC[C@@H](/C(C)=C/P(=O)(OCC)OCC)C1C1CCC3[C@@]4(C)CC[C@H](O)C(C)(C)C4CC[C@@]3(C)[C@]1(C)CC2 (stereo partly drawn) [ECH147, 29-diethoxyphosphoryl-28-propynylobetulin]",IC50,"[2]; Homo sapiens, 24 h, read-out: IC50 value",1.18 µg/mL and 2.04 µM
same,IC50,"[3]; Homo sapiens, HT-29, 24 h",0.63 µg/mL and 1.09 µM
same,IC50,"[4]; Homo sapiens, SW 1116, 24 h",5.21 µg/mL and 8.99 µM
same,IC50,"[7]; Homo sapiens, DLD-1, 24 h",0.69 µg/mL and 1.19 µM
same,cytotoxic effect compared with the other tested compounds,"[16]; MTT, 24 h",strongest cytotoxic effect
same,selectivity towards cancer cells,[16]; cancer lines vs normal cells,does not show selectivity towards cancer cells
same,change in cell viability,"[16]; each of the tested cell lines, concentrations higher than 1 µg/mL",significant decrease in cell viability
same,IC50,"[10]; Homo sapiens, HCT-116, 24 h",3.24 µg/mL and 5.59 µM
same,IC50,[17],1.4 µg/mL and 2.43 µM

# Reference: publication PMC11352258, “The Influence of Betulin and Its Derivatives on Selected Colorectal Cancer Cell Lines’ Viability and Their Antioxidant Systems” (Cells, 2024)
